Key:
[1] = system: HUVEC; assay: Antiangiogenic activity against human HUVEC cells assessed as inhibition of [3H]thymidine incorporation incubated for 24 hrs prior to [3H]thymidine addition measured after 6 hrs by microbeta counting analysis; type: functional, cell-based
[2] = Antiproliferative activity against human Jurkat T cells assessed as inhibition of [3H]thymidine incorporation incubated for 24 hrs prior to [3H]thymidine addition measured after 6 hrs by microbeta counting analysis; type: functional, cell-based
[3] = system: HUVEC; assay: Selectivity ratio of IC50 for human BT474 cells to IC50 for human HUVEC cells; type: functional
[4] = system: HUVEC; assay: Selectivity ratio of IC50 for human Jurkat T cells to IC50 for human HUVEC cells; type: functional
[5] = system: HUVEC; assay: Antiangiogenic activity against human HUVEC cells assessed as inhibition of tube formation after 16 to 18 hrs by Calcein-AM staining-based fluorescence microscopic analysis; type: functional, cell-based
[6] = system: HUVEC; assay: Antiangiogenic activity against human HUVEC cells assessed as inhibition of tube formation at 5 uM after 16 to 18 hrs by Calcein-AM staining-based fluorescence microscopic analysis; type: functional
[7] = system: HeLa; assay: Selectivity ratio of IC50 for human HeLa cells to IC50 for human HUVEC cells; type: functional
[8] = system: HeLa; assay: Antiproliferative activity against human HeLa cells assessed as inhibition of [3H]thymidine incorporation incubated for 24 hrs prior to [3H]thymidine addition measured after 6 hrs by microbeta counting analysis; type: functional, cell-based
[9] = system: BT-474; assay: Antiproliferative activity against human BT474 cells assessed as inhibition of [3H]thymidine incorporation incubated for 24 hrs prior to [3H]thymidine addition measured after 6 hrs by microbeta counting analysis; type: functional, cell-based

In the case of `COc1cc2c(cc1OC)-c1nc(N)sc1CC2`, the IC50 [1] is reported as greater than 10 µM.
With `O=C(Nc1nc2c(s1)CCCc1ccccc1-2)c1c(F)cccc1F` the IC50 [1] was 1.5 µM, the IC50 [2] was greater than 20 µM and the “Ratio IC50” value [3] was greater than 13. For the same compound, the “Ratio IC50” value [4] was greater than 13, the inhibition [5] was “Dose-dependent effect” and the inhibition at 5 µM [6] was 75%. The “Ratio IC50” value [7] was 10, the IC50 [8] was 15.2 µM and the IC50 [9] was greater than 20 µM.
In the case of `COc1ccc2c(c1)CCc1sc(N)nc1-2`, the IC50 [1] is reported as greater than 10 µM.
Compound `CCC(=O)Nc1nc2c(s1)COc1ccc(F)cc1-2` has an IC50 [1] greater than 10 µM.
With `Nc1nc(-c2ccc(Cl)cc2)cs1` the IC50 [1] was greater than 10 µM.
`CCC(=O)Nc1nc2c(s1)CCCC2` gave an IC50 [1] greater than 10 µM.
With `CCC(=O)Nc1nc2c(s1)CCCc1ccccc1-2` the IC50 [1] was 3.7 µM, the IC50 [2] was greater than 20 µM and the “Ratio IC50” value [3] was greater than 5. For the same compound, the “Ratio IC50” value [4] was greater than 5, the “Ratio IC50” value [7] was greater than 5 and the IC50 [8] was greater than 20 µM. The IC50 [9] was greater than 20 µM.
Compound `COc1ccc2c(c1)-c1nc(NC(C)=O)sc1CC2` has an IC50 [1] of 4.2 µM.
In the case of `CCC(=O)Nc1nc2c(s1)CSc1ccccc1-2`, the IC50 [1] is reported as 2 µM, the IC50 [2] is reported as 4.9 µM and the “Ratio IC50” value [3] is reported as 3. For the same compound, the “Ratio IC50” value [4] was 2.5, the “Ratio IC50” value [7] was 4 and the IC50 [8] was 8 µM. It also gave an IC50 [9] of 5.9 µM.
Work on `Nc1nc2c(s1)CCCC2` yielded an IC50 [1] greater than 10 µM.
For `CCCCCC(=O)Nc1nc2c(s1)CCc1cc(OC)ccc1-2`, the IC50 [1] was 3.7 µM.
In the case of `CCOC(=O)Nc1nc2c(s1)CCCc1ccccc1-2`, the IC50 [1] is reported as 9.2 µM, the IC50 [2] is reported as greater than 20 µM and the IC50 [8] is reported as greater than 20 µM. For the same compound, the IC50 [9] was greater than 20 µM.
`CC(=O)Nc1nc2c(s1)CCc1ccccc1-2` showed an IC50 [1] greater than 10 µM.
In the case of `CCOC(=O)Nc1nc2c(s1)CSc1ccc(Cl)cc1-2`, the IC50 [1] is reported as 2.8 µM, the IC50 [2] is reported as 6.3 µM and the “Ratio IC50” value [3] is reported as 2.2. For the same compound, the “Ratio IC50” value [4] was 2.3, the “Ratio IC50” value [7] was 2.3 and the IC50 [8] was 6.5 µM. It also gave an IC50 [9] of 6.2 µM.
With `COc1ccc2c(c1)-c1nc(N)sc1CC2` the IC50 [1] was greater than 10 µM.
`COc1ccc2c(c1)CCc1sc(NCc3ccco3)nc1-2` showed an IC50 [1] of 4.5 µM.
For `CCC(=O)Nc1nc2c(s1)CCc1cc(OC)c(OC)cc1-2`, the IC50 [1] was greater than 10 µM.
For `CC(=O)Nc1nc(-c2ccc(Cl)cc2)cs1`, the IC50 [1] was greater than 10 µM.
In the case of `COc1ccc(-c2csc(NC(C)=O)n2)cc1OC`, the IC50 [1] is reported as greater than 10 µM.
Work on `O=C(Nc1nc2c(s1)CSc1ccccc1-2)c1c(F)cccc1F` yielded an IC50 [1] of 12 µM, an IC50 [2] of 11.8 µM and an IC50 [8] of 13.1 µM. For the same compound, the IC50 [9] was 7.2 µM.
Work on `CCC(=O)Nc1nc2c(s1)COc1ccccc1-2` yielded an IC50 [1] greater than 10 µM.
Compound `CCC(=O)Nc1nc2c(s1)Cc1cc(F)ccc1-2` has an IC50 [1] greater than 10 µM.
Work on `Nc1nc2c(s1)COc1ccccc1-2` yielded an IC50 [1] greater than 10 µM.
In the case of `COc1ccc(-c2csc(N)n2)cc1OC`, the IC50 [1] is reported as greater than 10 µM.
In the case of `CCC(=O)N(C(=O)CC)c1nc2c(s1)CCCc1ccccc1-2`, the IC50 [1] is reported as 1.5 µM, the IC50 [2] is reported as 2.8 µM and the “Ratio IC50” value [3] is reported as greater than 13. For the same compound, the “Ratio IC50” value [4] was 1.9, the Ratio IC50 [7] was 4 and the IC50 [8] was 5.9 µM. It also gave an IC50 [9] greater than 20 µM.
Work on `Nc1nc2c(s1)COc1ccc(F)cc1-2` yielded an IC50 [1] greater than 10 µM.
`Nc1nc2c(s1)-c1ccccc1CC2` showed an IC50 [1] greater than 10 µM.
Work on `COc1cccc2c1CCc1sc(NC(C)=O)nc1-2` yielded an IC50 [1] greater than 10 µM.
Work on `COc1ccc2c(c1)Cc1sc(NC(C)=O)nc1-2` yielded an IC50 [1] of 4.4 µM.
`CCCCCC(=O)Nc1nc2c(s1)CCc1ccccc1-2` showed an IC50 [1] of 3 µM.
For `O=C(Nc1nc2c(s1)CSc1ccc(Cl)cc1-2)c1c(F)cccc1F`, the IC50 [1] was 5.2 µM, the IC50 [2] was 17.3 µM and the “Ratio IC50” value [3] was 0.7. The “Ratio IC50” value [4] was 3.3, the “Ratio IC50” value [7] was greater than 4 and the IC50 [8] was greater than 20 µM. The IC50 [9] was 3.6 µM.
`COc1ccc2c(c1)CCc1sc(NC(C)=O)nc1-2` showed an IC50 [1] greater than 10 µM.
`O=C(Nc1nc2c(s1)CCCc1ccc(F)cc1-2)c1c(F)cccc1F` showed an IC50 [1] of 13.5 µM, an IC50 [2] greater than 20 µM and an IC50 [8] greater than 20 µM. It also gave an IC50 [9] greater than 20 µM.
With `Clc1ccc2c(c1)-c1nc(NCc3ccco3)sc1CS2` the IC50 [1] was 1.1 µM, the IC50 [2] was 2.5 µM and the “Ratio IC50” value [3] was 2.1. The “Ratio IC50” value [4] was 2.3, the inhibition [5] was “Dose-dependent effect” and the “Ratio IC50” value [7] was 9.4. It also gave an IC50 [8] of 10.3 µM and an IC50 [9] of 2.3 µM.
Work on `COc1cccc2c1CCc1sc(N)nc1-2` yielded an IC50 [1] greater than 10 µM.
Compound `Nc1nc2c(s1)CCc1ccccc1-2` has an IC50 [1] greater than 10 µM.
`Nc1nc2c(s1)Cc1cc(F)ccc1-2` gave an IC50 [1] greater than 10 µM.
For `C#CCOc1ccc(C(=O)Nc2nc3c(s2)CCCc2ccccc2-3)cc1`, the IC50 [1] was 7.3 µM.
`Nc1nc2c(s1)CCOc1cc3c(cc1-2)OCO3` showed an IC50 [1] of 5.1 µM.
Work on `Nc1nc2c(s1)CCCc1ccccc1-2` yielded an IC50 [1] of 19.1 µM, an IC50 [2] greater than 20 µM and an IC50 [8] greater than 20 µM. The IC50 [9] was greater than 20 µM.
With `Nc1nc2c(s1)CSc1ccc(Cl)cc1-2` the IC50 [1] was 1.9 µM, the IC50 [2] was 1.6 µM and the “Ratio IC50” value [3] was 2. For the same compound, the “Ratio IC50” value [4] was 0.8, the “Ratio IC50” value [7] was 6.3 and the IC50 [8] was 11.9 µM. For the same compound, the IC50 [9] was 3.8 µM.
For `CC(=O)Nc1nc2c(s1)-c1ccccc1CC2`, the IC50 [1] was greater than 10 µM.
Work on `COc1ccc2c(c1)Cc1sc(N)nc1-2` yielded an IC50 [1] greater than 10 µM.
Compound `Nc1nc2c(s1)CCCc1ccc(F)cc1-2` has an IC50 [1] of 14.8 µM, an IC50 [2] greater than 20 µM and an IC50 [8] of 16.2 µM. It also gave an IC50 [9] greater than 20 µM.
In the case of `C#CCOc1ccc(C(=O)Nc2nc3c(s2)CSc2ccccc2-3)cc1`, the IC50 [1] is reported as 2.9 µM, the IC50 [2] is reported as 4.6 µM and the “Ratio IC50” value [3] is reported as 0.1. For the same compound, the “Ratio IC50” value [4] was 1.6, the “Ratio IC50” value [7] was 1.7 and the IC50 [8] was 5 µM. It also gave an IC50 [9] of 0.3 µM.
In the case of `Nc1nc2c(s1)CSc1ccccc1-2`, the IC50 [1] is reported as 1.9 µM, the IC50 [2] is reported as 0.9 µM and the “Ratio IC50” value [3] is reported as 4.3. For the same compound, the “Ratio IC50” value [4] was 0.5, the “Ratio IC50” value [7] was 3.6 and the IC50 [8] was 6.8 µM. The IC50 [9] was 8.2 µM.
`[N-]=[N+]=NCCCCCCNc1nc2c(s1)CSc1ccccc1-2` showed an IC50 [1] of 5.9 µM.

Reference: ChEMBL document CHEMBL2375231, “Tricyclic thiazoles are a new class of angiogenesis inhibitors” (Bioorg Med Chem Lett, 2013)
